# Experimental data published in PubChem BioAssay (NCI).
#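 GI50: concentration for 50% inhibition of growth. TGI marks complete inhibition of growth.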
# How the values were obtained:
# Assay in all cases: NCI anticancer screen, dose series, 384-well format
# [1] = system: SK-MEL-2 melanoma
# [2] = system: LOX IMVI melanoma
# [3] = system: 786-0 renal
# [4] = system: U251 glioblastoma
# [5] = system: SR leukemia
# [6] = system: NCI-H322M lung
# [7] = system: OVCAR-3 ovarian
# [8] = system: RXF 393 renal
# [9] = system: UACC-257 melanoma
# [10] = system: NCI/ADR-RES ovarian
# [11] = system: HT29 colon
# [12] = system: NCI-H522 lung
# [13] = system: HCT-15 colon
# [14] = system: A549 NSCLC
# [15] = system: SK-MEL-28 melanoma
# [16] = system: ACHN renal
# [17] = system: MALME-3M melanoma
# [18] = system: M14 melanoma
# [19] = system: MDA-MB-231 breast
# [20] = system: TK-10 renal
# [21] = system: MDA-MB-435 melanoma
# [22] = system: SK-OV-3 ovarian
# [23] = system: DU-145 prostate
# [24] = system: MOLT-4 leukemia
# [25] = system: T-47D breast
# [26] = system: COLO 205 colon
# [27] = system: IGROV1 ovarian
# [28] = system: OVCAR-8 ovarian
# [29] = system: SNB-19 CNS
# [30] = system: NCI-H460 NSCLC
# [31] = system: UO-31 renal
# [32] = system: BT-549 breast
# [33] = system: CAKI-1 renal
# [34] = system: SW-620 colon
# [35] = system: HCC-2998 colon
# [36] = system: HOP-92 NSCLC
# [37] = system: NCI-H23 lung
# [38] = system: HL-60(TB) leukemia
# [39] = system: SF-539 CNS
# [40] = system: SK-MEL-5 melanoma
# [41] = system: SN12C renal
# [42] = system: A498 renal
# [43] = system: SF-295 CNS
# [44] = system: HOP-62 NSCLC
# [45] = system: OVCAR-5 ovarian
# [46] = system: CCRF-CEM leukemia
# [47] = system: OVCAR-4 ovarian
# [48] = system: MCF7 breast
# [49] = system: HCT-116 colon
# [50] = system: RPMI-8226 leukemia
# [51] = system: UACC-62 melanoma
# [52] = system: NCI-H226 lung
# [53] = system: MDA-MB-468 breast
# [54] = system: SF-268 CNS
# [55] = system: PC-3 prostate
# [56] = system: K-562 leukemia
# [57] = system: KM12 colon
compound,measurement,setting,value
CO[C@@H]1/C=C\C=C(/C)C(=O)NC2=CC(=O)C(NCCN(C)C)=C(C[C@@H](C)C[C@@H](OC)[C@@H](O)[C@H](C)/C=C(\C)[C@H]1OC(N)=O)C2=O,GI50,[1],< 10 nM
same,TGI,[1],27.5 nM
same,GI50,[2],18.6 nM
same,TGI,[2],33.4 nM
same,GI50,[3],34.5 nM
same,TGI,[3],174 nM
same,GI50,[4],< 10 nM
same,TGI,[4],36.2 nM
same,GI50,[5],12.7 nM
same,TGI,[5],27 nM
same,GI50,[6],< 10 nM
same,TGI,[6],3400 nM
same,GI50,[7],23.3 nM
same,TGI,[7],76.3 nM
same,GI50,[8],< 10 nM
same,TGI,[8],16.9 nM
same,GI50,[9],19 nM
same,TGI,[9],99 nM
same,GI50,[10],2180 nM
same,TGI,[10],5060 nM
same,GI50,[11],< 10 nM
same,TGI,[11],1080 nM
same,GI50,[12],13 nM
same,TGI,[12],30.5 nM
same,GI50,[13],84.3 nM
same,TGI,[13],1310 nM
same,GI50,[14],< 10 nM
same,TGI,[14],673 nM
same,GI50,[15],12.5 nM
same,TGI,[15],9830 nM
same,GI50,[16],128 nM
same,TGI,[16],2540 nM
same,GI50,[17],< 10 nM
same,TGI,[17],< 10 nM
same,GI50,[18],< 10 nM
same,TGI,[18],38 nM
same,GI50,[19],23.7 nM
same,TGI,[19],68.1 nM
same,GI50,[20],77.4 nM
same,TGI,[20],846 nM
same,GI50,[21],29.4 nM
same,TGI,[21],1360 nM
same,GI50,[22],12.5 nM
same,TGI,[22],90.6 nM
same,GI50,[23],< 10 nM
same,TGI,[23],22.4 nM
same,GI50,[24],16.9 nM
same,TGI,[24],33.7 nM
same,GI50,[25],102 nM
same,TGI,[25],790 nM
same,GI50,[26],< 10 nM
same,TGI,[26],< 10 nM
same,GI50,[27],22.6 nM
same,TGI,[27],63.1 nM
same,GI50,[28],21.6 nM
same,TGI,[28],48.3 nM
same,GI50,[29],18.2 nM
same,TGI,[29],2180 nM
same,GI50,[30],< 10 nM
same,TGI,[30],< 10 nM
same,GI50,[31],368 nM
same,TGI,[31],11700 nM
same,GI50,[32],< 10 nM
same,TGI,[32],< 10 nM
same,GI50,[33],52.7 nM
same,TGI,[33],12100 nM
same,GI50,[34],< 10 nM
same,TGI,[34],78.1 nM
same,GI50,[35],< 10 nM
same,TGI,[35],28.9 nM
same,GI50,[36],36.4 nM
same,TGI,[36],137 nM
same,GI50,[37],24.1 nM
same,TGI,[37],67.8 nM
same,GI50,[38],21 nM
same,TGI,[38],37.1 nM
same,GI50,[39],< 10 nM
same,TGI,[39],24.6 nM
same,GI50,[40],< 10 nM
same,TGI,[40],366 nM
same,GI50,[41],12 nM
same,TGI,[41],41.6 nM
same,GI50,[42],50.8 nM
same,TGI,[42],12700 nM
same,GI50,[43],27.7 nM
same,TGI,[43],96.9 nM
same,GI50,[44],16.8 nM
same,TGI,[44],66.1 nM
same,GI50,[45],36 nM
same,TGI,[45],173 nM
same,GI50,[46],38.1 nM
same,TGI,[46],138 nM
same,GI50,[47],17.4 nM
same,TGI,[47],359 nM
same,GI50,[48],13.2 nM
same,TGI,[48],147 nM
same,GI50,[49],26.9 nM
same,TGI,[49],1340 nM
same,GI50,[50],16.1 nM
same,TGI,[50],35.4 nM
same,GI50,[51],< 10 nM
same,TGI,[51],48.4 nM
same,GI50,[52],22.7 nM
same,TGI,[52],84.5 nM
same,GI50,[53],23.8 nM
same,TGI,[53],54.3 nM
same,GI50,[54],24.8 nM
same,TGI,[54],2320 nM
same,GI50,[55],19.9 nM
same,TGI,[55],53.1 nM
same,GI50,[56],24.1 nM
same,TGI,[56],85.3 nM
same,GI50,[57],15.2 nM
same,TGI,[57],86.4 nM
